Source: patent publication US20070093520A1, “Method of treatment of diarrhea-predominant irritable bowel syndrome in a subject” (priority 2005, published 2007)

Tests used:
[1] = test system: diarrhea-predominant IBS subjects; assay: 3007 Study: laboratory marked abnormalities; type: in vivo, human; details: Study 3007
Description: Subjects were encouraged to fast at least six hours prior to laboratory samples being drawn. Laboratory safety tests were performed at Day 1 (Visit 5 of the core protocol), Months 1, 6, and 12 (end of study or at the early termination visit). Blood and urine were analyzed for:
• Prothrombin time (PT) (only before colonoscopy, as per clinical practice) • Hemoglobin • Hematocrit • Red blood cell count (RBC) • White blood cell count (WBC) • Differential blood count • Platelet count Blood Chemistry: • Glucose • Creatinine • Blood urea nitrogen (BUN) • Creatine kinase (CK) • Alkaline phosphatase (AP) • Total bilirubin • Alanine aminotransferase (ALT/SGPT) • Aspartate aminotransferase (AST/SGOT) • Gamma-glutamyltransferase (GGT) • Triglycerides • Cholesterol • Total protein • Uric acid • Sodium • Potassium • Calcium • Quantitative beta human chorionic gonadotrophin (β-HCG) (at every visit) • Thyroid stimulating hormone (visit 1 only) Urine: • Urobilinogen • Blood • Bilirubin • Ketones • Glucose • Protein • Nitrite • Leukocytes • pH • Dipstick pregnancy test (Day 1 only, if necessary) Stool: • Parasite, ova and stool culture (visit 1 only, if necessary) • Occult blood (analysis at each visit)
Laboratory data are presented in conventional units. Only one central laboratory was used for each laboratory parameter, thus no laboratory normalization was carried out.
For Study 3007, “baseline” was defined as Visit 1 of core Study 3006 for subjects randomized to the cilansetron treatment group in Study 3006 and as the last post-Baseline visit of Study 3006 (normally Visit 5) for subjects randomized to the placebo group in Study 3006.
Summary statistics are presented for all hematology and chemistry parameters at each analysis timepoint and at Endpoint, as well as for change from Baseline results at each post-Baseline analysis timepoint and at Endpoint. For laboratory assessments that were gender specific, summaries were presented separately for males and females. A listing of laboratory assessments for hematology, chemistry, and urinalysis parameters is presented. The following categories were used for the urinalysis parameter summaries: • pH: ≦5.0, >5.0 to ≦6.0, >6.0 to ≦7.0, and >7.0 • glucose, total protein, ketones, total bilirubin, nitrite, RBC (erythrocytes), and urobilinogen: negative and other (consisting of ‘trace’, ‘positive’, ‘+’, ‘++’, ‘+++’, or ‘++++’) • WBC (leukocytes): negative, positive
The overall incidence of post-Baseline marked abnormalities for hematology and chemistry parameters is also presented. Where applicable, the incidence of post-Baseline marked abnormalities is presented separately by whether the value was abnormally high or low. Any post-Baseline markedly abnormal laboratory measurement collected after the first dose of cilansetron and within 30 days of the last dose of cilansetron was included. However, assessments which were done more than 30 days after last subject visit and after database lock were not included in the analysis. Subjects were counted at most once for the post-Baseline marked abnormality for each laboratory parameter.

[2] = test system: diarrhea-predominant IBS subjects; details: human, in vivo
[3] = test system: diarrhea-predominant IBS subjects; assay: 3008 Study: 12-lead ECG abnormalities; type: in vivo, human; details: 3007 Study
Description: Resting 12-lead ECGs were performed at Day 1 (Visit 5 of the core protocol), Months 1, 6, and 12 (end of study or early termination visit). A centralized ECG service was used to evaluate all ECG tracings to supply consistent standardized ECG interpretation.
For by-visit assessments, visit windows were assigned to the post-Baseline assessments as follows (vital signs, laboratory tests, and ECGs):
All analyses and summaries for ECG assessments were based on the evaluation performed in the central ECG laboratory.
Summary statistics are presented for PR, QRS, QT, and QTc intervals (Bazett and Fridericia formulas) and heart rate at each visit and at Endpoint, as well as for change from Baseline results at each post-Baseline visit and at Endpoint. Bazett's and Fridericia's QTc intervals were calculated based on the following formulas: Bazett: QTc intervals=QT/√RR Fridericia: QTc intervals=QT/^3√RR
Markedly abnormal ECG parameter values collected after the first dose of study medication and within 30 days of the last dose of study medication were summarized overall. The following criteria were applied to identify markedly abnormal parameter values: • PR ≧0.210 sec; • QRS ≧0.120 sec; • QTc >0.440 sec;
The incidence of treatment-emergent ECG abnormalities is presented overall and by type of abnormality. A treatment-emergent ECG abnormality was an abnormality identified by the ECG core laboratory that was not present at baseline (e.g., prior to the entry into core Study 3006), and was observed on or after initiation of study medication and up to 30 days after discontinuation of study medication. The incidence of treatment-emergent ECG abnormalities is presented by time interval, as well as overall for the entire treatment period. The incidence of treatment-emergent abnormalities is also presented in more general categories (e.g., presenting incidence of treatment-emergent myocardial infarction overall as well as by location), depending on whether it mitigates the interpretation.

Compound: Cc1nccn1C[C@H]1CCc2c(c3cccc4c3n2CCC4)C1=O [cilansetron, (R)-(−)-4,5,6,8,9,10-hexahydro-10-[(2-methyl-1H-imidazol-1-yl)methyl]-11H-pyrido-[3,2,1-jk]-carbazol-11-one]
- post-Baseline markedly high CK [1]: 3%
- post-Baseline markedly high eosinophils [1]: 1%
- post-Baseline markedly high triglycerides [1]: 3%
- post-Baseline markedly high uric acid [1]: 1%
- post-Baseline markedly high GGT ([1]; females): 5%
- post-Baseline markedly high GGT ([1]; males): 7%
- post-Baseline markedly high GGT ([1]; overall): 6%
- TEAE leading to permanent discontinuation: Oesophageal Reflux Aggravated ([2]; both): 1 (<1%) n (%)
- TEAE: Oesophageal Reflux Aggravated ([2]; both, 52 weeks): 3 (<1%) n (%)
- TEAE: Gastrooesophageal Reflux Disease ([2]; 52 weeks): 4 (<1%) n (%)
- ECG abnormality: early-repolarization-normal variant [3]: > 10%
- ECG abnormality: sinus arrhythmia [3]: > 10%
- ECG abnormality: sinus bradycardia [3]: > 10%
- incidence of treatment-emergent markedly abnormal QTc(F) ([3]; 30 subjects): 2%
- incidence of treatment-emergent markedly abnormal QTc(B) ([3]; 105 subjects): 8%
